Experimental data: patent publication US20240207244A1, “COMPOSITIONS AND METHODS FOR TREATING NEURODEGENERATIVE DISORDERS THROUGH INHIBITION OF CD44 AND FERM PROTEIN INTERACTION” (Arizona Board of Regents on Behalf of the University of …, priority 2021, published 2024)

Legend:
Moesin [1] = biological target: T1, Moesin (Homo sapiens, UniProt P26038); experiment: Saturation transfer difference NMR (STD-NMR) binding to Moesin
From the text: Following in silico docking, we (the inventors) triage binding using saturation transfer difference NMR (STD-NMR) as is routinely done in our laboratory to define binding of small molecules (see, Mollasalehi, N. et al. ACS Chem Biol, doi: 10.1021/acschembio.0c00494 (2020): Francois-Moutal, L. et al. ACS Chem Biol 14, 2006-2013, doi: 10.1021/acschembio.9b00481 (2019): François-Moutal, L. et al. ACS Chem Biol 13, 3000-3010, doi:10.1021/acschembio.8b00745 (2018)) (FIG. 2A). After testing the ability of all compounds to bind to Moesin. […] We then measured the affinity of binding using micro-scale thermophoresis (MST), a technique to quantify biomolecular interactions, based on thermophoresis. Concentration-dependent measurements were done using MST to determine dissociation constant for binding of P1 to Moesin and we obtained Apparent Kd=Xxx±xxx μM. Data are presented as mean±SD (n=3) (FIG. 3).

Moesin [2] = biological target: T1, Moesin; experiment: Cellular Thermal Shift Assay (CETSA); format: cell-based
From the text: CETSA: To further ascertain the binding between Moesin and small compounds, we are currently developing Cellular Thermal Shift Assay (CETSA), a convenient cell-based test for identifying target engagement between ligands (i.e. a drug candidate) and their protein targets (PMID:XXX). CETSA has been previously used to measure the binding of small molecules to Ezrin (another FERM protein similar to Moesin) in a cellular environment (PMID: 33003361). The assay consists of the measurement of the shift in thermal stability of the target protein (Moesin) in the presence of the small molecules. The apparent melting temperature (Tm), observed in the presence or the absence of a bioactive compound, can be evaluated by measuring the persistence of soluble protein at different temperatures. If the compound binds to the protein of interest, a shift in melting temperature is observed.

GST = GST (Schistosoma japonicum, UniProt P08515); experiment: STD-NMR binding to control GST; settings: control protein
HMC3 cells = experiment: Flow cytometry of HLA-DR expression in IFNγ-stimulated HMC3 microglial cells; format: cell-based, Human; settings: HMC3 cells pre-incubated 24 h, then stimulated with IFNγ
From the text: Once we define the binding using purified protein, we validate the binding in cells. We have done this through imaging by using the Lumio™ system for site-specific fluorescent labeling of recombinant proteins in living cells, flow cytometry assays, and cellular thermal shift assay (CETSA). • Lumio™ System Imaging: This recently developed method relies on FLASH (Fluorescein Arsenical Hairpin) technology, which uses biarsenical labeling reagents to bind and detect proteins containing a tetracysteine (TC) motif (Griffin et al., 1998). The biarsenical labeling reagents are nonfluorescent until they bind the TC motif at which time, they become highly fluorescent. Both, a genetically engineered CD44 containing a TC motif, and mCherry-Moesin, were co-transfected into Immortalized Human Microglia (SV40 cell line) (FIG. 5). Ongoing work is being done to optimize this protocol and adapt it for use with small compounds. • Flow Cytometry: Current studies of microglial activation are widely performed to study neuroinflammation and test small compounds and their anti-inflammatory properties. IFNγ was be used to activate macrophage response in HMC3 cells (Human microglial cell line, PMID: 30200996), while flow cytometry was employed in combination with small compounds. […] Reactive microglia expressing the histocompatibility glycoprotein HLA-DR were detected using flow cytometry. […]

Moesin [3] = biological target: T1, Moesin; experiment: Biophysical binding of P1 analogs (SAR); settings: first round of analogs
From the text: Indeed, such experiments defined the known structural interactions between CD44, and Msn based on a co-crystal structure of this protein-protein complex. It was proposed that the binding of Msn through CD44 could be mimicked by small molecules. By performing in silico docking on the CD44 binding pocket, using a virtual screen of 50,000 compounds and 200,000 pharmacophores and guided by FERM domain-peptide co-crystal structures, such experiments identified druggable pockets in these FERM proteins. Top scoring compounds were tested for binding to recombinant purified FERM proteins using several biophysical methods.
• Before engaging in custom synthesis, we searched for additional commercially available analogs to expand SAR at the east part of the P1, keeping the piperidinemethyl-heterocycle constant (FIG. 7, red oval). A total of 4.2M compounds were searched for a match to P1 features. “Drug-like” ZINC database 2019 and ChemBridge catalogue provided P1 analogues commercially available. 18 compounds matching the search criteria were selected and tested for biophysical binding. […] Our next SAR analogs will thus include structural modifications that will explore hydrogen bond patterns and the size of the fragments in the 5-hydroxypiperonyl/pyrazolopyridine area. […]

T1 sequence (P26038 whole entry): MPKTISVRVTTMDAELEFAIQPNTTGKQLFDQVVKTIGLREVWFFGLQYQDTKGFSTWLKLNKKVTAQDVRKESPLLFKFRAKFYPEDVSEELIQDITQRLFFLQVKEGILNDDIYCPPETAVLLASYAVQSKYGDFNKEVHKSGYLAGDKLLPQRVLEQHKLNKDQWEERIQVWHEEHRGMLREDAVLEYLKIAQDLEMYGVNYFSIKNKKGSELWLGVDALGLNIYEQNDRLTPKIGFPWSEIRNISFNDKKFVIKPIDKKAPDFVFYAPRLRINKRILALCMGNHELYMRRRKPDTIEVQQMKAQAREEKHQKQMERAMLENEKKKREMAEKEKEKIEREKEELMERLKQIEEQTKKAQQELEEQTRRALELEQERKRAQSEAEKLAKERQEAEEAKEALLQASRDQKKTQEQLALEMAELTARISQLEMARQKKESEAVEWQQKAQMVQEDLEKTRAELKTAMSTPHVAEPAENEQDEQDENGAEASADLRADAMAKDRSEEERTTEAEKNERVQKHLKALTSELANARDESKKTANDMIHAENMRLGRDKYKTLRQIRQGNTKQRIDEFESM
Sequence of GST (P08515 2-218 limits assumed): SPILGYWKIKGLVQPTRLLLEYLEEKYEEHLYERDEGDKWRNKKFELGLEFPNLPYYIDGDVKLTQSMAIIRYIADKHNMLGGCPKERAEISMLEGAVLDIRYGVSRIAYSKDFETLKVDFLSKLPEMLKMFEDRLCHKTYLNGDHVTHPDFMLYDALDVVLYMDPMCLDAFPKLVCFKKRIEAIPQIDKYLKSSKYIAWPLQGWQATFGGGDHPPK

CN1CCC(Cc2noc(CCc3nc4cccnc4n3C)n2)CC1 [P1]
binding to Moesin (Moesin [1]): binding specifically | shift in melting temperature of Moesin (Moesin [2]): discrete shift | binding to the control GST (GST): did not bind | HLA-DR level (HMC3 cells): reduced

CC(Oc1ccc2c(c1)OCO2)c1nc(CC2CCN(C)CC2)no1 (centres unmarked) [Plsar3]
binding relative to P1 (Moesin [3]): improved binding
